Test results reported in PubChem BioAssay AID248 (DTP/NCI, 2004).
“And” between values parts separate entries of the source, which are not always exact repeats. Identical values can stand only once. Inconclusive results and toxic doses are left out. Rule as the data show it: active = T/C of 150% or more; inactive = T/C below 125%.

System: L1210 leukemia ip in BDF1 mice, survival T/C
Experiment: NCI In Vivo Anticancer Drug Screen. Data for tumor model L1210 Leukemia (intraperitoneal) in B6D2F1 (BDF1) mice
Conditions: endpoint: mean survival time, higher = longer survival
In short: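 Transplantable tumor model; survival measured in treated vs vehicle control mice. Value = treated/control.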

[1] = dose: 100.0 mg/kg/injection, schedule: Q01DX001 (ip), vehicle: saline
[2] = dose: 100.0 mg/kg/injection, schedule: Q04DX003 (ip), vehicle: saline
[3] = dose: 200.0 mg/kg/injection, schedule: Q01DX001 (ip), vehicle: saline
[4] = dose: 200.0 mg/kg/injection, schedule: Q04DX003 (ip), vehicle: saline
[5] = dose: 400.0 mg/kg/injection, schedule: Q01DX001 (ip), vehicle: saline
[6] = dose: 400.0 mg/kg/injection, schedule: Q04DX003 (ip), vehicle: saline
[7] = dose: 50.0 mg/kg/injection, schedule: Q01DX009 (ip), vehicle: Klucel (hydroxypropylcellulose) (HPC)
[8] = dose: 100.0 mg/kg/injection, schedule: Q01DX009 (ip), vehicle: Klucel (hydroxypropylcellulose) (HPC)
[9] = dose: 200.0 mg/kg/injection, schedule: Q01DX009 (ip), vehicle: Klucel (hydroxypropylcellulose) (HPC)
[10] = dose: 400.0 mg/kg/injection, schedule: Q01DX009 (ip), vehicle: Klucel (hydroxypropylcellulose) (HPC)
[11] = dose: 100.0 mg/kg/injection, schedule: Q04DX003 (ip), vehicle: saline with Tween-80
[12] = dose: 200.0 mg/kg/injection, schedule: Q04DX003 (ip), vehicle: saline with Tween-80
[13] = dose: 400.0 mg/kg/injection, schedule: Q04DX003 (ip), vehicle: saline with Tween-80

Measured: T/C

COP(=O)(CCBr)OC
inactive: [1] 103 % of control | dose: 100.0 mg/kg/injection, schedule: Q01DX009 (ip), vehicle: saline 101 % of control | [2] 104 % of control | [3] 102 % of control | dose: 200.0 mg/kg/injection, schedule: Q01DX009 (ip), vehicle: saline 103 % of control | [4] 104 % of control | [5] 108 % of control | dose: 400.0 mg/kg/injection, schedule: Q01DX009 (ip), vehicle: saline 98 % of control | [6] 106 % of control

Nc1c(Br)cc(Br)c(C(=O)O)c1Br
inactive: [7] 103 % of control | [8] 101 % of control | [9] 95 % of control

CCCCCCCCCCCCOc1ccc(/C(=N\N=C(N)N)c2ccccc2)c(O)c1
inactive: dose: 15.0 mg/kg/injection, schedule: Q01DX Z (ip), vehicle: saline 91 % of control | dose: 30.0 mg/kg/injection, schedule: Q01DX Z (ip), vehicle: saline 89 % of control | dose: 120.0 mg/kg/injection, schedule: Q01DX Z (ip), vehicle: saline 92 % of control | dose: 120.0 mg/kg/injection, schedule: Q01DX Z (oral), vehicle: saline 102 % of control | dose: 240.0 mg/kg/injection, schedule: Q01DX Z (ip), vehicle: saline 103 % of control | dose: 240.0 mg/kg/injection, schedule: Q01DX Z (oral), vehicle: saline 102 % of control | dose: 480.0 mg/kg/injection, schedule: Q01DX Z (ip), vehicle: saline 110 % of control | dose: 480.0 mg/kg/injection, schedule: Q01DX Z (oral), vehicle: saline 95 % of control | dose: 960.0 mg/kg/injection, schedule: Q01DX Z (oral), vehicle: saline 101 % of control

Nc1[nH]c(=S)ncc1-c1ccccc1Cl
inactive: dose: 6.25 mg/kg/injection, schedule: Q01DX009 (ip), vehicle: Klucel (hydroxypropylcellulose) (HPC) 94 % of control | dose: 12.5 mg/kg/injection, schedule: Q01DX009 (ip), vehicle: Klucel (hydroxypropylcellulose) (HPC) 94 % of control | dose: 25.0 mg/kg/injection, schedule: Q01DX009 (ip), vehicle: Klucel (hydroxypropylcellulose) (HPC) 97 % of control | [8] 88 % of control

CC1(N(O)C(=O)NC2CCCCC2)CCCCC1
inactive: dose: 100.0 mg/kg/injection, schedule: Q01DX001 (ip), vehicle: saline with Tween-80 101 % of control | dose: 200.0 mg/kg/injection, schedule: Q01DX001 (ip), vehicle: saline with Tween-80 97 % of control

O=C(Nc1cccc(C(F)(F)F)c1)N(CCO)Cc1ccccc1
inactive: dose: 100.0 mg/kg/injection, schedule: Q01DX001 (ip), vehicle: Klucel (hydroxypropylcellulose) (HPC) 104 % of control | [8] 100 % of control and 109 % of control | dose: 100.0 mg/kg/injection, schedule: Q04DX003 (ip), vehicle: Klucel (hydroxypropylcellulose) (HPC) 103 % of control | dose: 200.0 mg/kg/injection, schedule: Q01DX001 (ip), vehicle: Klucel (hydroxypropylcellulose) (HPC) 105 % of control | [9] 100 % of control and 114 % of control | dose: 200.0 mg/kg/injection, schedule: Q04DX003 (ip), vehicle: Klucel (hydroxypropylcellulose) (HPC) 99 % of control | dose: 400.0 mg/kg/injection, schedule: Q01DX001 (ip), vehicle: Klucel (hydroxypropylcellulose) (HPC) 102 % of control | [10] 93 % of control and 107 % of control | dose: 400.0 mg/kg/injection, schedule: Q04DX003 (ip), vehicle: Klucel (hydroxypropylcellulose) (HPC) 95 % of control

CCOC(=O)c1ccc2ccccc2[n+]1C
inactive: dose: 75.0 mg/kg/injection, schedule: Q01DX001 (ip), vehicle: saline 89 % of control | dose: 150.0 mg/kg/injection, schedule: Q01DX001 (ip), vehicle: saline 94 % of control | dose: 300.0 mg/kg/injection, schedule: Q01DX001 (ip), vehicle: saline 91 % of control

CC(c1ccccc1)N1COc2ccc3ccccc3c2C1 (centres undefined)
inactive: dose: 50.0 mg/kg/injection, schedule: Q01DX001 (ip), vehicle: carboxymethylcellulose (CMC) 97 % of control | dose: 50.0 mg/kg/injection, schedule: Q01DX015 (ip), vehicle: carboxymethylcellulose (CMC) 96 % of control | dose: 100.0 mg/kg/injection, schedule: Q01DX001 (ip), vehicle: carboxymethylcellulose (CMC) 93 % of control | dose: 100.0 mg/kg/injection, schedule: Q01DX015 (ip), vehicle: carboxymethylcellulose (CMC) 96 % of control | [11] 94 % of control | dose: 200.0 mg/kg/injection, schedule: Q01DX001 (ip), vehicle: carboxymethylcellulose (CMC) 103 % of control | dose: 200.0 mg/kg/injection, schedule: Q01DX015 (ip), vehicle: carboxymethylcellulose (CMC) 97 % of control | [12] 93 % of control | dose: 400.0 mg/kg/injection, schedule: Q01DX001 (ip), vehicle: carboxymethylcellulose (CMC) 104 % of control | dose: 400.0 mg/kg/injection, schedule: Q01DX015 (ip), vehicle: carboxymethylcellulose (CMC) 90 % of control | [13] 88 % of control

O=C1C(O)=C(c2ccc(Br)cc2)C(=O)C(O)=C1c1ccc(Br)cc1
inactive: dose: 75.0 mg/kg/injection, schedule: Q01DX001 (ip), vehicle: other 103 % of control

Cc1cc(C)c(O)c(N=O)c1.[Cu+2]
inactive: dose: 50.0 mg/kg/injection, schedule: Q01DX001 (ip), vehicle: saline 101 % of control | [1] 97 % of control | [3] 101 % of control | [5] 97 % of control

c1ccc2c(c1)CCC1=C2CCCC1
inactive: dose: 100.0 mg/kg/injection, schedule: Q01DX009 (ip), vehicle: saline with Tween-80 96 % of control | [11] 101 % of control | dose: 200.0 mg/kg/injection, schedule: Q01DX009 (ip), vehicle: saline with Tween-80 98 % of control | [12] 89 % of control | dose: 400.0 mg/kg/injection, schedule: Q01DX009 (ip), vehicle: saline with Tween-80 91 % of control | [13] 92 % of control

O=[N+]([O-])c1cccs1
inactive: [7] 97 % of control | [8] 108 % of control | dose: 100.0 mg/kg/injection, schedule: Q04DX003 (ip), vehicle: other 104 % of control | dose: 200.0 mg/kg/injection, schedule: Q04DX003 (ip), vehicle: other 103 % of control

CC(=O)c1cccc(N)c1
inactive: [8] 94 % of control | [2] 95 % of control | [9] 93 % of control | [4] 95 % of control | [10] 93 % of control | [6] 88 % of control

CC1(C)N=C(N)N=C(N)N1c1cccc(Cl)c1Cl
inactive: dose: 5.0 mg/kg/injection, schedule: Q01DX009 (ip), vehicle: saline 95 % of control | dose: 10.0 mg/kg/injection, schedule: Q01DX009 (ip), vehicle: saline 104 % of control | dose: 20.0 mg/kg/injection, schedule: Q01DX009 (ip), vehicle: saline 107 % of control

COc1n[nH]c(N)n1
inactive: dose: 100.0 mg/kg/injection, schedule: Q04DX002 (ip), vehicle: saline with Tween-80 122 % of control | dose: 200.0 mg/kg/injection, schedule: Q04DX002 (ip), vehicle: saline with Tween-80 98 % of control | dose: 400.0 mg/kg/injection, schedule: Q04DX002 (ip), vehicle: saline with Tween-80 105 % of control

O=C(CCBr)N1CCCN(C(=O)CCBr)CC1
inactive: dose: 106.0 mg/kg/injection, schedule: Q01DX Z (ip), vehicle: carboxymethylcellulose (CMC) 114 % of control | dose: 160.0 mg/kg/injection, schedule: Q01DX Z (ip), vehicle: carboxymethylcellulose (CMC) 119 % of control
